Results on two compounds are retold here after article PMC5524190 (Biochemistry, 2016).

SMILES strings stand for the structures. Read-outs that look alike come from different tables or passages of the source.

Broadly, the Ki is the dissociation constant of the complex between target and ligand, obtained from inhibition or displacement. The term Km denotes the substrate concentration at which the rate is half of its maximum.

In assay [1] the target is BaIMPDHΔL. Format: biochemical, Bacillus anthracis.
Assay [2] has as its system BaIMPDHΔL. The class given is biochemical, Bacillus anthracis. The source holds these as a separate data set.

`NC(=O)C1=CN([C@@H]2O[C@H](COP(=O)(O)OP(=O)(O)OC[C@H]3O[C@@H](n4cnc5c(N)ncnc54)[C@H](O)[C@@H]3O)[C@@H](O)[C@H]2O)C=CC1` [NADH]: the Ki was 620 ± 360 µM in assay [1] (read-out: Ki(Q), observed ± std.err.); 97 ± 9 µM in assay [1] (read-out: Ki(Q,B), observed ± std.err.); 301 µM in assay [2] (read-out: Ki(Q), predicted); 87.2 µM in assay [2] (read-out: Ki(Q,B), predicted). In addition, the “lower limit of k4 (NADH rebinding)” value in assay [2] was > 2e+06 M⁻¹ s⁻¹.
As to `NC(=O)c1ccc[n+]([C@@H]2O[C@H](COP(=O)([O-])OP(=O)(O)OC[C@H]3O[C@@H](n4cnc5c(N)ncnc54)[C@H](O)[C@@H]3O)[C@@H](O)[C@H]2O)c1` [NAD^+], the inhibition constant (Ki) in assay [1] (read-out: Ki(B), observed ± std.err.) was found to be 7400 ± 400 µM. Besides, in assay [1] (read-out: Km(B), observed ± std.err.), the Michaelis-Menten constant (Km) came to 460 ± 20 µM. Further, in assay [2], the k2 was determined as 31800 M⁻¹ s⁻¹, the “k−2” value came to 10.9 s⁻¹, the “k−7” value amounted to 566000 s⁻¹ and the “lower limit of k−7 (substrate inhibition by NAD+)” value is > 4000 M⁻¹ s⁻¹. Moreover, the inhibition constant Ki in assay [2] (read-out: Ki(B), predicted) was 6610 µM. Moreover, in assay [2] (read-out: Km(B), predicted), the Km was 415 µM. Also, the Kd in assay [2] (read-out: dissociation equilibrium constant k−7/k7 (substrate inhibition by NAD+)) was ~5500 µM.
